Assay results: ChEMBL document CHEMBL2074088, “Trans-stimulation effects of folic acid derivatives on methotrexate transport by rat renal organic anion transporter, OAT-K1” (J Pharmacol Exp Ther, 2000)

Each compound was assayed against T1, Solute carrier organic anion transporter family member 1A3 (Rattus norvegicus, UniProt P70502) (assay: TP_TRANSPORTER: inhibition of MTX uptake in OAT-K1-expressing MDCK cells).
T1 sequence (P70502 whole entry): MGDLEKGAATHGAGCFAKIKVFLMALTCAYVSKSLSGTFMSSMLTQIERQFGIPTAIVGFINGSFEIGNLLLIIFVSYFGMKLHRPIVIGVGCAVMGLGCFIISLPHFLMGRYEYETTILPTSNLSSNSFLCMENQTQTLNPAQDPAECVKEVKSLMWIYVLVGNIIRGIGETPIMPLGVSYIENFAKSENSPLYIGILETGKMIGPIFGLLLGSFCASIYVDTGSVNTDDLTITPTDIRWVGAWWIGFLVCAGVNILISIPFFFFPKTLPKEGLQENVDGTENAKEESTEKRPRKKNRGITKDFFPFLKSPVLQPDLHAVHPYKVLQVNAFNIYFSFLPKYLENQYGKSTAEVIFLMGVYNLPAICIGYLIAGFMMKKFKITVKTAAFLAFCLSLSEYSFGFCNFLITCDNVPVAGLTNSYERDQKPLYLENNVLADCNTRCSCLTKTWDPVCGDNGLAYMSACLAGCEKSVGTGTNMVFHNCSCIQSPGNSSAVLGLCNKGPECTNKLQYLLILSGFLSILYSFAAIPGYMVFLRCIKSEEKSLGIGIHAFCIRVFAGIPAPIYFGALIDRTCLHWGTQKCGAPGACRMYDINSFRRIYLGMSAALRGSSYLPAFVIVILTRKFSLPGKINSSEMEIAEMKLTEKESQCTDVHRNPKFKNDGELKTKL
Type: functional, cell-based

| Structure (SMILES) | Ki [µM] |
| --- | --- |
| Nc1nc(N)c2nc(CNc3ccc(C(=O)N[C@@H](CCC(=O)O)C(=O)O)cc3)cnc2n1 [AMINOPTERIN] | 0.5 |
| Nc1nc2ncc(CNc3ccc(C(=O)N[C@@H](CCC(=O)O)C(=O)O)cc3)nc2c(=O)[nH]1 [FOLIC ACID] | 14.1 |
| Nc1nc2c(c(=O)[nH]1)N(C=O)C(CNc1ccc(C(=O)N[C@@H](CCC(=O)O)C(=O)O)cc1)CN2 (stereo not given in full) [LEUCOVORIN] | 8.2 |
| CN1c2c(nc(N)[nH]c2=O)NC[C@@H]1CNc1ccc(C(=O)N[C@@H](CCC(=O)O)C(=O)O)cc1 [LEVOMEFOLIC ACID] | 1.2 |
| O=C1OC(c2ccc(O)c(S(=O)(=O)O)c2)(c2ccc(O)c(S(=O)(=O)O)c2)c2c(Br)c(Br)c(Br)c(Br)c21 [SULFOBROMOPHTHALEIN SODIUM] | 21 |
